Results published in US10787485B2, “Peptide for coating surfaces” (Universität Leipzig, priority 2015, dated 2020).
Entries after “also recorded” stand apart in the source; their conditions may differ.

Tests used:
[1] = Biotin ELISA, binding of biotinylated peptides to etched titanium slices; settings: for pEC50 binding affinity to titanium / EC50: biotinylated peptides, etched titanium slices, 2 hrs at RT in TBS; for EC50: read-out: EC50 binding affinity to titanium; for beginning of saturation phase of binding to titanium: concentration effect curve of the biotin ELISA
Method: Following synthesis of the mussel peptide by solid phase peptide synthesis (Fmoc/tBu strategy) the binding affinity to titanium was studied.
(§1) For that, titanium slices were etched in order to obtain a freshly oxidized surface. Subsequently, the titanium slices were incubated with various peptide concentrations. Following intensive washing steps titanium-bound peptide was identified with the well-described biotin-streptavidin interaction. […] Moreover, stability of the DOPA peptides was tested in cell supernatant to imitate in vitro conditions. For that, titanium slices were coated with the corresponding biotinylated peptides (concentration=1 μM). Following incubation in SaOS-2 cell supernatant at 37° C. remaining peptide was identified by means of the biotin ELISA. Within a period of 7 days constantly more than 50% of immobilized and biotinylated peptide were detected (FIG. 2C).
Titanium foil (Sigma Aldrich, thickness: 0.127 mm) was cut to round pieces (area=0.43 cm^2) and etched in H2SO4 (30%)/H2O2 (1:1 v/v) for 7 min. Following washing steps with water and TBS buffer (50 mM tris(hydroxymethyl)-aminomethane (Tris), 150 mM NaCl, pH 7.6) the titanium slices were incubated with various concentrations of biotinylated peptides in TBS buffer dissolved for 2 hrs. at RT. Subsequently, the coated slices were washed 5 times with TBS-T buffer (50 mM Tris, 150 mM NaCl, 0.1% Tween 20, pH 7.6) and transferred to new reaction vessels. The following biotin ELISA was performed in accordance with Hassert et al.^3 Zero reading values were obtained with uncoated titanium slices and subtracted from the generated values (absorption per cm^2). The obtained data points were non-linearly fitted with GraphPad Prism 5 software (GraphPadInc.). Error bars are represented as standard error of the mean (SEM) from at least 2 independent experiments.

[2] = Stability test by biotin ELISA of peptides immobilized on titanium, in SaOS-2 cell supernatant; type: in vitro ADME; settings: titanium coated at 1 μM, 37° C.
Method: as §1
Titanium slices were etched as described and incubated overnight with 1 μM of peptide solutions in TBS buffer at RT. Subsequently, the coated slices were washed 5 times with TBS-T buffer and transferred to new reaction vessels. Thereafter, the titanium slices were incubated with cell supernatant (of SaOS-2 cells after 2 days of cell cultivation) at 37° C. for certain times. To detect […], biotinylated peptide on the surface the titanium slices were washed 4 times with TBS-T and once with TBS and the biotin ELISA was performed as described. Zero reading values were obtained by uncoated titanium slices and subtracted from the generated data. The obtained measuring values were normalized to the value measured at 0 min. Error bars are represented as standard error of the mean (SEM) from at least 2 independent experiments (double determination).

SaOS-2 cells [3] = experiment: Immunolabelling of focal contacts (vinculin) on peptide coatings; type: cell-based; settings: 24 hrs adhesion, anti-vinculin antibody
Method: (§2) To determine the bioactivity of the ligated peptides and their controls cell adhesion studies have been performed. Osteoblast-like cells (SaOS-2) have been sown on etched peptide-coated titanium. All cellular experiments were performed in serum-free medium to prevent false results by adsorption of serum proteins. To study initial cell adhesion the cells were fixed and dyed after 6 h of cultivation to observe morphology and average cell plane and number by means of fluorescence microscopy. […] Indeed, an increase in cell size was observed, slightly higher than on uncoated titanium slices. […] Cells having a fibroblast-like morphology and distinct bundles of fibrils have been found on all RGD-containing peptide coatings. […] In addition to the average cell plane the cell number was determined by counting cells that adhered after 6 h. […] Moreover, a similar tendency as already in the cell plane experiment could be observed. […] It is known that RGD peptides mediate the formation of focal contacts that are decisive for the outer-inner communication between cell and ECM.^6 By immuno-labeling with an anti-vinculin antibody it is possible to visualize vinculin, a protein involved in building up focal adhesion.
Cells (40,000 per well) were sown onto coated and washed titanium slices as already described. After 1 d of cell adhesion the slices were washed twice with PBS. All of the following washing steps were performed with 0.05% (v/v) Tween-20 in PBS. Thereafter, the cells were fixed and permeabilized as already described. To block unspecific interactions the slices were incubated with 1% bovine serum albumin (BSA) in PBS for 40 min. Subsequently, the cells were incubated with a murine monoclonal antibody against vinculin (Millipore, staining kit, 1:200) for 1 hr. at RT. Thereafter, the cells were washed and labeled with phalloidin-TRITC and a fluoresceinisothiocyanate (FITC) conjugated goat anti-mouse antibody (Millipore, 1:100) in 1% (v/v) BSA in PBS for 2 hr. Following a further washing step the nucleus was dyed with 4′,6-diamidino-2-phenylindol (DAPI, Millipore) in PBS for 15 min. Before the slices were attached to slides they were washed three times for 10 min. each. Fluorescence microscopy was performed on an Axio Observer microscope and an ApoTome Imaging System (Zeiss).

SaOS-2 cells [4] = experiment: Viability assay (resazurin) on coated titanium; type: cell-based; settings: after 3 days of adhesion
Method: (§3) In addition to initial cell adhesion after 6 h cell viability and proliferation after 3 d was studied. Incorporation of the bromine-labeled thymidine analogue bromodeoxyuridine (BrdU) within 24 h, after 2 d of cell adhesion, was used to determine proliferation of cells on coated titanium. No significant changes could be found between the immobilized peptides and controls (FIG. 5C). However, a peptide coating is advantageous compared to untreated titanium. […] Cell viability was studied after 3 days of adhesion by reacting resazurin to resorufin by living cells. […] This fact emphasizes the cell repellent, but at the same time not toxic properties of the PEG. […] Thus, the advantageous approach to present both cell binding peptides in one molecule is confirmed.
Cells were sown onto coated and washed titanium slices in FCS-free medium in a 96-well plate. After one day the medium was replaced by FCS-containing medium. On day 3 20 μL of CellTiderBlue® (Promega) were added to each well. After 2 hrs. of incubation the reaction of resazurin to resorufin was determined by means of fluorescence intensity measurement at 560Ex/590Em nm. The measured values (mean±SEM) were evaluated from 4 independent experiments performed in triplicate.

SaOS-2 cells [5] = experiment: Cell adhesion assay on peptide-coated titanium (fluorescence microscopy); type: cell-based; settings: 6 h adhesion, serum-free medium; for average cell plane (cell propagation, cell size) / cell morphology / actin cytoskeleton: 1 μM peptide coating; for cell number of adhered cells: normalized to uncoated Ti
Method: as §2
Titanium foil was stamped and etched as already described. Following washing steps with water and PBS buffer (Dulbeccos phosphate) the titanium slices were sterilized with 70% ethanol/water (v/v) in an ultrasonic bath for 15 min. After having washed twice with PBS buffer the titanium slices were incubated overnight in a 48-well plate at RT with 300 μL of 1 μM of a peptide solution in PBS, PBS (negative control), and fibronectin in PBS (25 μg/mL, positive control).
Coated titanium slices (48-well plate) were washed twice with PBS. SaOS-2 cells were re-suspended in medium without FCS. Thereafter, the cells were sown on the coated titanium slices (50,000-90,000 cells per well, in this range we didn't find any influence on the cell plane for respective coating). Following adhesion for 6 hrs. the slices were washed with PBS and the cells were fixed with 4% paraformaldehyde in PBS for 30 min. Subsequently, the adhered cells were washed and permeabilized with 1% Triton X-100 in PBS for 1 min. Thereafter, the cells were dyed with phalloidin-tetramethylrhodamine isothiocyanate (phalloidin-TRITC) and HOECHST 33342 (both Sigma Aldrich). For fluorescence microscopy (Axio Observer microscope, Zeiss) the slices were attached to slides. For each slice (triplicate) 3 representative images at 20 fold and 10 fold magnification were made. Then, the average cell plane was determined by edging (Software Axio Vision 4.8, Zeiss) each single cell on one representative image (20 fold) each of each triplicate. The determined values were summarized from 3 independent experiments and represented as mean±SEM. To determine the cell number, three 10 fold magnified images were evaluated by means of ImageJ software and normalized to titanium=1, n≥3.

SaOS-2 cells [6] = experiment: Proliferation assay (BrdU) on coated titanium; type: cell-based; settings: 24 h incorporation after 2 d of cell adhesion, normalized to uncoated titanium
Method: as §3
Cells were sown onto coated and washed titanium slices in FCS-free medium in a 96-well plate. After one day the medium was replaced by FCS-containing medium. On day 2 bromodeoxyuridine (BrdU) was added to each well for labelling (colorimetric Cell Proliferation kit, Roche). After 24 hrs. of incorporation of the label the cells were washed and fixed. […] Binding of the antibody was detected with the addition of a 3,3′,5,5′-tetramethylbenzidine (TMB) solution and H2O2(Calbiochem). […] The measured values (mean±SEM) were evaluated from 4 independent experiments performed in triplicates and normalized to uncoated titanium.

Row | Substance | pEC50 binding affinity to titanium [1] | EC50 [1] | stability on titanium, comparison of peptides [2] | formation of focal adhesion contacts (vinculin) (SaOS-2 cells [3]) | average cell plane (cell propagation, cell size) (SaOS-2 cells [5]) | cell morphology / actin cytoskeleton (SaOS-2 cells [5]) | also measured
1 | Bio-X-X-A-K-P*-S-Y*-P*-P*-T-Y*-K-NH2 [mefp-1] | 8.2±0.1 | 6.4 nM | no significant differences |  |  |  | beginning of saturation phase of binding to titanium [1]: sub-μM range
2 | Bio-X-X-C-Peg-Y*-K-Y*-Peg-G*-βA-NH2 [bio-MP] |  |  | no significant differences |  |  |  | 
3 | C-Peg-Y*-K(c[RGDfK])-Y*-Peg-G*(K(N3)-FHRRIKA-NH2)-βA-NH2 [MP-RGD-HBP] |  |  |  | line-like adhesion contacts (green) were formed; also recorded: slight increase in focal complexes | highest average cell plane | distinctive, parallel actin filaments have formed | cell viability (resazurin to resorufin) (SaOS-2 cells [4]): best result among all synthesized peptides; cell proliferation (BrdU incorporation) (SaOS-2 cells [6]): slightly increased cell proliferation
4 | C-Peg-Y*-K(c[RGDfK])-Y*-Peg-G*-βA-NH2 [MP-RGD] |  |  |  | line-like adhesion contacts (green) were formed | average cell size comparable to the naturally occurring ECM protein fibronectin |  | 
5 | C-Peg-Y*-K-Y*-Peg-G*(K(N3)-FHRRIKA-NH2)-βA-NH2 [MP-HBP] |  |  |  | a few or no focal adhesion contacts | increase of cell propagation compared with MP and uncoated titanium | only formed a few actin filaments and adhered in irregular cell shapes | 
6 | C-Peg-Y*-K-Y*-Peg-G*-βA-NH2 [MP] | 7.6±0.1 | 23.6 nM | tendency to a higher stability | a few or no focal adhesion contacts | smallest cell propagation | rather round shape with slightly formed cytoskeleton | beginning of saturation phase of binding to titanium [1]: sub-μM range; cell viability (resazurin to resorufin) (SaOS-2 cells [4]): more living cells could be analyzed on this coating than on titanium; cell number of adhered cells (SaOS-2 cells [5]): smallest cell number
7 | P*-T-Y-K-NH2 [bio-(−) mefp-1] | 4.6±0.1 | > 10000 nM |  |  |  |  | 
8 | c[RGDfK(dienophile)] |  |  |  |  |  |  | cell number of adhered cells (SaOS-2 cells [5]): increased to a greater extent than on HBP
